Some targets named below: Ephrin type-A receptor 4 (Homo sapiens, UniProt P54764); Activin receptor type-2A (Homo sapiens, UniProt P27037); Activated CDC42 kinase 1 (Homo sapiens, UniProt Q07912).
Experiment [1] deals with Mitogen-activated protein kinase 9 (Homo sapiens, UniProt P45984).
For experiment [2], the target named is Calcium/calmodulin-dependent protein kinase kinase 2 (Homo sapiens, UniProt Q96RR4).
Experiment [3] concerns the target Death-associated protein kinase 2 (Homo sapiens, UniProt Q9UIK4).
The target in experiment [4] is Mast/stem cell growth factor receptor Kit (Homo sapiens, UniProt P10721, T670I/V559D).
The target in experiment [5] is Dual specificity testis-specific protein kinase 1 (Homo sapiens, UniProt Q15569).
Experiment [6] concerns the target Serine/threonine-protein kinase SIK2 (Homo sapiens, UniProt Q9H0K1).
Experiment [7] concerns the target MAP/microtubule affinity-regulating kinase 3 (Homo sapiens, UniProt P27448).
Experiment [8] concerns the target T1, Protein kinase C epsilon type (Homo sapiens, UniProt Q02156).
T1 sequence (Q02156 whole entry): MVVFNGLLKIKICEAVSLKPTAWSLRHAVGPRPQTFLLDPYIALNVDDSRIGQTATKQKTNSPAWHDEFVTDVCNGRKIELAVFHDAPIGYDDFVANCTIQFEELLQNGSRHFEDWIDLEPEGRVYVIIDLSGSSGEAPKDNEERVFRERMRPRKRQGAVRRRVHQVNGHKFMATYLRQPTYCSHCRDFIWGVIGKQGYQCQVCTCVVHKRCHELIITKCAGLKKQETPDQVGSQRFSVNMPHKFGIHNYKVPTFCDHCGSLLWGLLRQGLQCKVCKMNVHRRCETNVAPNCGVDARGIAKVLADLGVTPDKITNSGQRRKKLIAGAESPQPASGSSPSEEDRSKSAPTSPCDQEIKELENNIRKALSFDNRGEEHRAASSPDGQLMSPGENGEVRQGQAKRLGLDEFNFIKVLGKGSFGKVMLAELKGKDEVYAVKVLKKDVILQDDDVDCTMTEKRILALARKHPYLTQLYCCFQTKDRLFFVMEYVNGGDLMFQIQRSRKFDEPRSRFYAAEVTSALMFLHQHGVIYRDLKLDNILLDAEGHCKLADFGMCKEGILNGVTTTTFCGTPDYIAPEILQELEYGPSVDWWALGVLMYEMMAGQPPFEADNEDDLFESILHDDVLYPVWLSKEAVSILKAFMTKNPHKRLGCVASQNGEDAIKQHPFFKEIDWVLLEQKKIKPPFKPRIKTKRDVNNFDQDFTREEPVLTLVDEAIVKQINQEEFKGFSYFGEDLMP

The next experiment has as its target T2, Aurora kinase A (Homo sapiens, UniProt O14965).
T2 sequence (O14965 whole entry): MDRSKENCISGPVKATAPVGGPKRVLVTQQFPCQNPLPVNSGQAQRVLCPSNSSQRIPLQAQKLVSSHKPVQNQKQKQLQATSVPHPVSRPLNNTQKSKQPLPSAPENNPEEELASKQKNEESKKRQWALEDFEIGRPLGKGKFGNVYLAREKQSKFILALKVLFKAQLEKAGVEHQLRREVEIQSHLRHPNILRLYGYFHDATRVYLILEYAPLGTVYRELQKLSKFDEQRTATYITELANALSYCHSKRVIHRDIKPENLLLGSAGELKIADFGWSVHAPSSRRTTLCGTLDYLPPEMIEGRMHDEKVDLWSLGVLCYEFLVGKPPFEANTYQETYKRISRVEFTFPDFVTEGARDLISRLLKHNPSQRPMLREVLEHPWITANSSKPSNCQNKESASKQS

The target of experiment [9] is T3, Serine/threonine-protein kinase 36 (Homo sapiens, UniProt Q9NRP7).
T3 sequence (Q9NRP7 whole entry): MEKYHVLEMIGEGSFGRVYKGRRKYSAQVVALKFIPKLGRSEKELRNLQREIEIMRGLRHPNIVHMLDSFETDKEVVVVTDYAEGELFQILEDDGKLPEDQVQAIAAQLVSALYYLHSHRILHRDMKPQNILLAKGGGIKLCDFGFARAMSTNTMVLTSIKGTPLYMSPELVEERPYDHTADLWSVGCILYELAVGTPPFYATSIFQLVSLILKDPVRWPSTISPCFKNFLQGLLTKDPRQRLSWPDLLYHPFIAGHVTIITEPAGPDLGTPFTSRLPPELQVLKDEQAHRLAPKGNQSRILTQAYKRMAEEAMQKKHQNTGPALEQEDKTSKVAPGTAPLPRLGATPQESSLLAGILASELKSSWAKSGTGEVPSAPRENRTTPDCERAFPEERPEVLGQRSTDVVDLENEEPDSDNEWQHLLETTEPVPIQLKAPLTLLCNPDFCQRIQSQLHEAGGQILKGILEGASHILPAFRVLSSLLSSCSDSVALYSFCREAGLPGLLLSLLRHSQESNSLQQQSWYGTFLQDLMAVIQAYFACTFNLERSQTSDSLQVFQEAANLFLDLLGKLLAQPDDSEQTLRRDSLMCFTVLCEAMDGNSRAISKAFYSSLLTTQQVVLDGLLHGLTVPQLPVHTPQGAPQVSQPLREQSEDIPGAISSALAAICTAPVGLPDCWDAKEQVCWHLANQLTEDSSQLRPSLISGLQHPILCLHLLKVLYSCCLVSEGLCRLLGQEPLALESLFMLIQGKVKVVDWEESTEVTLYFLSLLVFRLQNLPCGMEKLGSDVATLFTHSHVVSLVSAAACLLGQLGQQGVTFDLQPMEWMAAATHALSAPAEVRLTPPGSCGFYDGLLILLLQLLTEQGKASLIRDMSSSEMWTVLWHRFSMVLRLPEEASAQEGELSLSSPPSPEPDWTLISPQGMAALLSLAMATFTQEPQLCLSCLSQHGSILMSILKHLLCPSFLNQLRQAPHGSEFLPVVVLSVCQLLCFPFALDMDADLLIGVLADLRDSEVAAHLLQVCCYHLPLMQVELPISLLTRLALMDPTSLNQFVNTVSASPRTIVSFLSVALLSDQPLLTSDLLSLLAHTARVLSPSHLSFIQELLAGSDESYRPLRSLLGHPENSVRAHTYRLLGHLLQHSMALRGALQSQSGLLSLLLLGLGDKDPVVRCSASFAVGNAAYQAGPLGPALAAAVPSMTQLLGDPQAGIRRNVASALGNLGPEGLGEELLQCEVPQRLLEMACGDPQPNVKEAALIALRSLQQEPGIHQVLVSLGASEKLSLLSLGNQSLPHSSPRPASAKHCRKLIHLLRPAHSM

Drawing on ChEMBL document CHEMBL1150977, “A quantitative analysis of kinase inhibitor selectivity” (Nat Biotechnol, 2008), this text covers Kd for five compounds.

MAP/microtubule affinity-regulating kinase 3, sequence (P27448 whole entry): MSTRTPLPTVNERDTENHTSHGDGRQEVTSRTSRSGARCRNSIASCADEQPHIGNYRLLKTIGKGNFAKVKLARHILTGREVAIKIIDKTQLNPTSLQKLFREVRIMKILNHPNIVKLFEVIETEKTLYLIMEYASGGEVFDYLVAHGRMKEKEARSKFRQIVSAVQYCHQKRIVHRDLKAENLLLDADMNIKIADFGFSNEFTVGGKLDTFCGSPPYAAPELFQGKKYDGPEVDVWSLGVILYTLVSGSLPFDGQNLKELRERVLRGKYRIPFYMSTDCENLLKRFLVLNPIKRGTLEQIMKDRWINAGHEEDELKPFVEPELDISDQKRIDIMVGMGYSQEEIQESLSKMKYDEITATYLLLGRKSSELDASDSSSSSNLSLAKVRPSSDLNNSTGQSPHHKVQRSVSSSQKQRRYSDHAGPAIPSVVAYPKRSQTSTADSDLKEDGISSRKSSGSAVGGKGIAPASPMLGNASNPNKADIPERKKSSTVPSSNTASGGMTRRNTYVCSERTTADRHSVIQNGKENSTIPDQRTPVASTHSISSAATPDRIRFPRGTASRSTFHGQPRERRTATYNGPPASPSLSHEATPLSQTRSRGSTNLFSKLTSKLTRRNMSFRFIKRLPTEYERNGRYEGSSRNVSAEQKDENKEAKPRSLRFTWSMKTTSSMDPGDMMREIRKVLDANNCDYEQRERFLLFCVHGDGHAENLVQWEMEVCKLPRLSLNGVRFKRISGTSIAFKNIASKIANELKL
Death-associated protein kinase 2, sequence (Q9UIK4 whole entry): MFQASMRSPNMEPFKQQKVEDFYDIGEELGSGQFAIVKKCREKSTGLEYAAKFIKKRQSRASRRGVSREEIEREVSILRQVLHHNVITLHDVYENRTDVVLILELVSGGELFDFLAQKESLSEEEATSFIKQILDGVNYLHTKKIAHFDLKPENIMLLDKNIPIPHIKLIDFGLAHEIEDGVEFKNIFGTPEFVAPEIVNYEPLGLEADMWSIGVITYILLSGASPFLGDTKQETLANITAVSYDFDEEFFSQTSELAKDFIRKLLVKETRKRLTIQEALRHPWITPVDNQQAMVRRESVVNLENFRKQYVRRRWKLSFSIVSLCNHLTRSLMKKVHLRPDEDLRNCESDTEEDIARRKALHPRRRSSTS
Mast/stem cell growth factor receptor Kit, sequence (P10721 26-976 V559D/T670I limits assumed): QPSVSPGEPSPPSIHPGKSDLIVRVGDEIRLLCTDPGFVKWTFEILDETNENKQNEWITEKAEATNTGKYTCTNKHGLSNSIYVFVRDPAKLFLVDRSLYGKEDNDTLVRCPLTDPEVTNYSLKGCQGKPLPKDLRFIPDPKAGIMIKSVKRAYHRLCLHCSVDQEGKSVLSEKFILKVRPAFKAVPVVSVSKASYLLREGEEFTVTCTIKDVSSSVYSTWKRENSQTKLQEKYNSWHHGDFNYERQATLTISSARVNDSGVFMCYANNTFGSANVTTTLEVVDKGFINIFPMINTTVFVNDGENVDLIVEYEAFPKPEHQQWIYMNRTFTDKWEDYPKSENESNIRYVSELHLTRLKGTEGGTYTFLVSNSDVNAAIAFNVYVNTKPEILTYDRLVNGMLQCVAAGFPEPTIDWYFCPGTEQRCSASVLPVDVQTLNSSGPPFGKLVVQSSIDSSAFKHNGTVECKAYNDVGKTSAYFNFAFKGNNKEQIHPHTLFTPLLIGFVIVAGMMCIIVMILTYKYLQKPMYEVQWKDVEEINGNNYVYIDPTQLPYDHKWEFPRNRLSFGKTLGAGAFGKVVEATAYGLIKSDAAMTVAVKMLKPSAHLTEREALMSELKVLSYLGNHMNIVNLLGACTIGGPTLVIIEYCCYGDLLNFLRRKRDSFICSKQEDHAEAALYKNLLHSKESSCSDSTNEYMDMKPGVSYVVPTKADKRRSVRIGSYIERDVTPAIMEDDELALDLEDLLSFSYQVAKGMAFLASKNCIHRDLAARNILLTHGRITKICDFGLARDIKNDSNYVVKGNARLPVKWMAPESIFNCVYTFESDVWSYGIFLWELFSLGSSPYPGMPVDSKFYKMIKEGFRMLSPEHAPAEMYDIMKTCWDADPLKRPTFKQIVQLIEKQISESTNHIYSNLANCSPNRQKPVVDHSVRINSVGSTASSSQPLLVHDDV
Serine/threonine-protein kinase SIK2, sequence (Q9H0K1 whole entry): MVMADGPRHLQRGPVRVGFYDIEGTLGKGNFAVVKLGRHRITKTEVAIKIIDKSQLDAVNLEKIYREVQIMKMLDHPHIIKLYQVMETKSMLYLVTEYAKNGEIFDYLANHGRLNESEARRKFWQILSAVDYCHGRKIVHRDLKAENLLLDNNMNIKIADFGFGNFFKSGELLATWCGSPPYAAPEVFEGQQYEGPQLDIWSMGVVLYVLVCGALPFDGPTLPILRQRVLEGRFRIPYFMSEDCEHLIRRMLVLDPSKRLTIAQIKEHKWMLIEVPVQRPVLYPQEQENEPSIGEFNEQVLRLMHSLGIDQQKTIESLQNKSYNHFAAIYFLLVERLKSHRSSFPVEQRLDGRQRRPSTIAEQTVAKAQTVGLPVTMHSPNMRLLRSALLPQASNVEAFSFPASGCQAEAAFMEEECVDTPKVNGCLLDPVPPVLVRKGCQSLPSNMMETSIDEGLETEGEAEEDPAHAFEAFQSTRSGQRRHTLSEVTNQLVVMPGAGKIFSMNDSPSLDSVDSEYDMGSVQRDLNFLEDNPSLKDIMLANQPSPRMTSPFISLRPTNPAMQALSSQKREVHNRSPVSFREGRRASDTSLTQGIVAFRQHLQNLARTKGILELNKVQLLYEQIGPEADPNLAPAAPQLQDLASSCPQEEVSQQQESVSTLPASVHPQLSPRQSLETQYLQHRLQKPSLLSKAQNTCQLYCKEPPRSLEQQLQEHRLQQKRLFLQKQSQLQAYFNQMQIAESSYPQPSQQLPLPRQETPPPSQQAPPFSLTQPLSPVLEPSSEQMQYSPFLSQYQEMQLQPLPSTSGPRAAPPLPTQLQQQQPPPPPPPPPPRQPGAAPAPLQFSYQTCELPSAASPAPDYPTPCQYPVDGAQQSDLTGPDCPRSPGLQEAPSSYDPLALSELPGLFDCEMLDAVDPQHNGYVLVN
Dual specificity testis-specific protein kinase 1, sequence (Q15569 whole entry): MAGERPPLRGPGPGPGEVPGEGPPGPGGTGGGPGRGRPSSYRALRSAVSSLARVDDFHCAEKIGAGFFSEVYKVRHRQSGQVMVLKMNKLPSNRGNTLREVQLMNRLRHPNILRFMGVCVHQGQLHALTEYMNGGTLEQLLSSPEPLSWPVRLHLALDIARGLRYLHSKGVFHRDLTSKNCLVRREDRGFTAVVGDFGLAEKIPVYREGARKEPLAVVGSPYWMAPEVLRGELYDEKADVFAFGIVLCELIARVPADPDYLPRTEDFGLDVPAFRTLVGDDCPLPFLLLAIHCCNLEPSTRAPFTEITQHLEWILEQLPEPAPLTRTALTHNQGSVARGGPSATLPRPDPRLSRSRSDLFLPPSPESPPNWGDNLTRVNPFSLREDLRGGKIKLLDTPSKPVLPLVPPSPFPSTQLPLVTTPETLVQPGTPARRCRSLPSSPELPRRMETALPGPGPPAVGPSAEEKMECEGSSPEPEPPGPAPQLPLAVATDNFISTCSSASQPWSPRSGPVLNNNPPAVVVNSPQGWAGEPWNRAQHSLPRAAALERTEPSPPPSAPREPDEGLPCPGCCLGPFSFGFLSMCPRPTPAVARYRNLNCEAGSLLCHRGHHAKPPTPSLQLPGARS
Activin receptor type-2A, sequence (P27037 whole entry): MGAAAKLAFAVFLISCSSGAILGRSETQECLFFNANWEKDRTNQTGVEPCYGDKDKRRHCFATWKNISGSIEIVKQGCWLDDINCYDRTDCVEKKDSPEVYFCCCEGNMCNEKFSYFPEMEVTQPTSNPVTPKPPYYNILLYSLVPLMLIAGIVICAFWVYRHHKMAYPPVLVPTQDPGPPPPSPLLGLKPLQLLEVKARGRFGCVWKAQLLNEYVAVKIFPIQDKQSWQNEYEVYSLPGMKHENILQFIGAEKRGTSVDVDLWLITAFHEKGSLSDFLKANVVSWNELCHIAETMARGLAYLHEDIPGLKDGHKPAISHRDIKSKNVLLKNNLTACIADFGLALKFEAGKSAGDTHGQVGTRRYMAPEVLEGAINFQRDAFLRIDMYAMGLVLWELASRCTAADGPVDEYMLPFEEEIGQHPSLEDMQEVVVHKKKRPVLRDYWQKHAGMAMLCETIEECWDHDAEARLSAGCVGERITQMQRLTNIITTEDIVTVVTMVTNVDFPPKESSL
Calcium/calmodulin-dependent protein kinase kinase 2, sequence (Q96RR4 whole entry): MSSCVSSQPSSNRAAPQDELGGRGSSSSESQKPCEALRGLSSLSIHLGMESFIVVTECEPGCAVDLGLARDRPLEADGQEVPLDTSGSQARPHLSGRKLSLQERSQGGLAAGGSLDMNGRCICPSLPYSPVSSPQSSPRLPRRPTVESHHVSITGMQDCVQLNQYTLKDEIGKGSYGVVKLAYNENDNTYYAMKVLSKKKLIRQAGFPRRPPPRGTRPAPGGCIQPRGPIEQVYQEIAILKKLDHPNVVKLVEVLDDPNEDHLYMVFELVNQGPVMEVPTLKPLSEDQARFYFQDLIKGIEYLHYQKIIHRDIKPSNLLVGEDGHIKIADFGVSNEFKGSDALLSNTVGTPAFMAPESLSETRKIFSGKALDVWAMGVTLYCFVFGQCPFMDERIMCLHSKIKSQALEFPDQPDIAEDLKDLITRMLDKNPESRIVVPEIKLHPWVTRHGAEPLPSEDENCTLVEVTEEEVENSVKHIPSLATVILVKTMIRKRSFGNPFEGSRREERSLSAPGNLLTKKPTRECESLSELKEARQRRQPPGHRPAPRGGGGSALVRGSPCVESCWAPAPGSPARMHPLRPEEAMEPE

A word on the Kd: it is a measure of binding affinity in units of concentration. As for `COCC(=O)NC/C=C/c1ccc2ncnc(Nc3ccc(Oc4ccc(C)nc4)c(C)c3)c2c1` [CP-724714], the Kd (in experiment [1]; in experiment [2]; in experiment [3]; in experiment [4]; in experiment [5]; on Ephrin type-A receptor 4) was above 10 µM in each case. Further, the Kd (in experiment [6]; at Activin receptor type-2A; in [7]; in [8]; at Aurora kinase A; in experiment [9]) was above 10 µM throughout. At Activated CDC42 kinase 1, the Kd is above 10 µM.

On to `Nc1nc(Nc2ccc(S(N)(=O)=O)cc2)nn1C(=O)c1c(F)cccc1F` [JNJ-7706621], for which the Kd in experiment [3] is above 10 µM; in experiment [5], 3.1 µM; on Ephrin type-A receptor 4, above 10 µM; in experiment [8], above 10 µM; in experiment [9], above 10 µM.

Consider `CCOc1cc2ncc(C#N)c(Nc3ccc(F)c(Cl)c3)c2cc1NC(=O)/C=C/CN(C)C` [PELITINIB], for which the Kd (in experiment [1]; in experiment [3]; in [4]; in [5]; on Ephrin type-A receptor 4; at Activin receptor type-2A) was above 10 µM each time. The Kd in [7] was above 10 µM; in experiment [8], above 10 µM; on Aurora kinase A it was above 10 µM; on Activated CDC42 kinase 1, 5.2 µM.

For `Oc1ccc(-c2nc(-c3ccncc3)c(-c3ccc(F)cc3)[nH]2)cc1` [SB-202190], the Kd (in [2]; in experiment [3]; in experiment [4]; in [5]; on Ephrin type-A receptor 4; in [6]) was above 10 µM in each case. Further, the Kd at Activin receptor type-2A is above 10 µM; in experiment [7], above 10 µM; in [8], above 10 µM; at Aurora kinase A, above 10 µM; in experiment [9] it was 0.79 µM; on Activated CDC42 kinase 1, above 10 µM.

Consider `NC(=O)c1ccc(-c2nc(-c3ccc4c(c3)OCO4)c(-c3ccccn3)[nH]2)cc1` [SB-431542], for which the Kd (in [1]; in [2]; in [3]; in experiment [4]; on Ephrin type-A receptor 4; in experiment [6]) was above 10 µM each time. Moreover, the Kd (at Activin receptor type-2A; in experiment [7]; in experiment [8]; on Aurora kinase A; in experiment [9]; on Activated CDC42 kinase 1) was above 10 µM each time.
